Results as given in patent publication US20240132463A1, “SUBSTITUTED N-(2-(2,6-DIOXOPIPERIDIN-3-YL)-1,3-DIOXOISOINDOLIN-5-YL)ARYLSULFONAMIDE ANALOGS AS MODULATORS OF CEREBLON PROTEIN” (ST. JUDE CHILDREN'S RESEARCH HOSPITAL, INC., priority 2020, published 2024).
Where two headings read alike, the source gives them in different places.

Key:
[1] = Aqueous solubility assay; format: physicochemical; settings: aqueous solubility at pH = 7.4, triplicate
Experimental: Solubility assays were carried out on a Biomek FX lab automation workstation (Beckman Coulter, Inc., Fullerton, CA) using μSOL Evolution software (pION Inc., Woburn, MA). 10 μL of 10 mM compound stock (in DMSO) was added to 190 μL 1-propanol to make a reference stock plate. 5 μL from this reference stock plate were mixed with 70 μL 1-propanol and 75 μL citrate phosphate-buffered saline (PBS;isotonic) to make the reference plate, and the UV spectrum (250-500 nm) of the reference plate was read. 6 μL of 10 mM test compound stock was added to 594 μL buffer in a 96-well storage plate and mixed. The storage plate was sealed and incubated at RT for 18 h. The suspension was then filtered through a 96-well filter plate (pION Inc., Woburn, MA). 75 μL of filtrate was mixed with 75 μL 1-propanol to make the sample plate, and the UV spectrum of the sample plate was read. Calculations were carried out with μSOL Evolution software based on the area under the curve (AUC) of the UV spectrum of the sample and reference plates. All compounds were tested in triplicate.

[2] = target: IKZF1 (Homo sapiens (Human), UniProt Q13422+Q96SW2); experiment: IKZF1 degradation by immunoblot in MV4-11 cells; format: cell-based; settings: MV4-11 cells; for DC50: read-out: IKZF1 DC50, 24 h treatment
Experimental: MV4-11 cells were seeded in 6-well plates (1×10^6 cells per well). After overnight incubation, the cells were treated with indicated concentrations for specific timepoints. […] After blocking the membrane with LI-COR TBS blocking buffer and incubation in primary antibody overnight, the corresponding protein signals were detected using IRDye secondary antibodies and Odyssey Imaging System. Image Studio Lite Ver 5.2 was used for blot quantification. […] IRDye® 800CW Goat anti-Mouse IgG Secondary Antibody and IRDye® 68ORD Goat anti-Rabbit IgG Secondary Antibody were used as secondary antibodies.

[3] = tested on: MV4-11 cells; experiment: MV-4-11 cell viability assay; format: cell-based, human; settings: 72 hours, Cell Titer Glo
[4] = tested on: MDCKII-MDR1 cells; experiment: MDCKII-MDR1 permeability assay; format: in vitro ADME; settings: permeability in MDCK-MDR1 cells
Experimental: High throughput […]1 permeability was performed in the Transwell® 0.4 μm polycarbonate membrane 96-well system with modified methods (Refs. 38-39). […]1 cells were maintained at 37° C. in a humidified incubator with an atmosphere of 5% CO2. The cells were cultured in 75 cm^2 flasks with Dulbecco's Modified Eagle's Medium (DMEM) containing 10% fetal bovine serum (FBS), 1% non-essential amino acids (NEAA), 100 units/ml of penicillin, and 100 μg/ml of streptomycin. The […]1 cells were seeded onto inserts at a density of 2×10^4 and 1×10^4 cells/insert separately. The medium in the wells was exchanged each other day, and the trans epithelial electrical resistance (TEER) value was measured using an epithelial volt-ohm meter (Millipore, Billerica, Massachusetts). […] For transport experiments, each cultured monolayer on the 96-well plate was washed twice with a transport buffer (HBSS/25 mM HEPES, pH 7.4). The permeability assay was initiated by the addition of each compound solution (10 μmol/L) into inserts (apical side, A) or receivers (basolateral side, B). The MDCKII-MDR1 cell monolayers were incubated for 1 hour at 37° C. Fractions were collected from receivers (if apical to basal permeability) or inserts (if basal to apical permeability), and concentrations were assessed by UPLC/MS (Waters; Milford, MA). All compounds were tested in triplicates. The A→B (or B→A) apparent permeability coefficients (Papp) of each compound were calculated using the equation, Papp=dQ/dt×1/AC0, where dQ/dt equals the flux of a drug across the monolayer, A equals the total insert well surface area, and C0 is the initial concentration of substrate in the donor compartment. The efflux ratio was determined by dividing the Papp in the B-A direction by the Papp in the A-B direction.

[5] = target: 6×His-CRBN-DDB1 protein (Homo sapiens (Human), UniProt Q96SW2); experiment: CRBN fluorescence polarization assay; format: binding
Sequence of 6×His-CRBN-DDB1 protein (Q96SW2 whole entry): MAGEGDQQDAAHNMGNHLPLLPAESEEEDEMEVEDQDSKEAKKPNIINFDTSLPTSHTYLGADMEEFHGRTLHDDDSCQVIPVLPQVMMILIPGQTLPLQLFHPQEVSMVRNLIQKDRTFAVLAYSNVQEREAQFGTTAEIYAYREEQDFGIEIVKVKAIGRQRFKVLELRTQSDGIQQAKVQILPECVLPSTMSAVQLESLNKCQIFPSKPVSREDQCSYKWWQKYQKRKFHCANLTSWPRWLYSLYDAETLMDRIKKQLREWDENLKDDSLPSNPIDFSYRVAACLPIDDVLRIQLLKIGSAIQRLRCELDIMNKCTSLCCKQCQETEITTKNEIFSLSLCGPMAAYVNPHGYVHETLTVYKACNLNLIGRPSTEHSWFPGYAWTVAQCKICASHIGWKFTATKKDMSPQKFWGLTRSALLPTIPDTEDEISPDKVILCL
Sequence of 6×His-CRBN-DDB1 protein (Q16531 whole entry partner): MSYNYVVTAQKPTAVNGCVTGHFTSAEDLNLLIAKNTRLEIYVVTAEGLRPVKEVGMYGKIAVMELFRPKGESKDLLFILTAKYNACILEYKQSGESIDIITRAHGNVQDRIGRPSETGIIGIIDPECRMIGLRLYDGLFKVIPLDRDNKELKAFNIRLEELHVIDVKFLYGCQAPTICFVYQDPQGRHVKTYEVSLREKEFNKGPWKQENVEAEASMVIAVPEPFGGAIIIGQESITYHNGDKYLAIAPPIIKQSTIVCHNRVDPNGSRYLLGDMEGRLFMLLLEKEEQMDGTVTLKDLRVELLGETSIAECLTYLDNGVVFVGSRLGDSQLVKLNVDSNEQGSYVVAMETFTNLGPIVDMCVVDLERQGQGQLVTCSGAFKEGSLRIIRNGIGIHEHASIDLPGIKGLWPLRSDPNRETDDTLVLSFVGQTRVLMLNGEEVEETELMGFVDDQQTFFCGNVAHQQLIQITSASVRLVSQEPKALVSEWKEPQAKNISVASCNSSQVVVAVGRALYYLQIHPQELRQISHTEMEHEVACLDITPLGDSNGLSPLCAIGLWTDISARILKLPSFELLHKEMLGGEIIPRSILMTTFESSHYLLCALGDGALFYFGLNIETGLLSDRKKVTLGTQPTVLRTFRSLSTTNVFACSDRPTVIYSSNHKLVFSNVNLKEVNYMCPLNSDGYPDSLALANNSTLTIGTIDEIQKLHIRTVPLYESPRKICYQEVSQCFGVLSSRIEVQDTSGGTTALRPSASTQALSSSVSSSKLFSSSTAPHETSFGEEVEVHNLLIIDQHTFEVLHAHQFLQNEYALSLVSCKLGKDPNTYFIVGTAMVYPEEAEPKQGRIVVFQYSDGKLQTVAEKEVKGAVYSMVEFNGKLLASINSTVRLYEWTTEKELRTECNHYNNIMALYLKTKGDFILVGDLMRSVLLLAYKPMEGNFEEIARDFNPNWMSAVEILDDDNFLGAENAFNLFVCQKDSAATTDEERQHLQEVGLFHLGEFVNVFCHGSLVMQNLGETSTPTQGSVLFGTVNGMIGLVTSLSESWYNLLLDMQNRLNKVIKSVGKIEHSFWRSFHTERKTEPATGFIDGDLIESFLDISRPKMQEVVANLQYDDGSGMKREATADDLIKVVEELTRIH
Experimental: 6×His-CRBN-DDB1 protein (200 nM) and Cy5-O-Len probe (30 nM) were combined in 20 mM HEPES pH 7, 150 mM NaCl, 0.005% Tween-20 assay buffer. […] The plates were incubated in the dark for 1 hour at room temperature and then read on an Envision plate reader (PerkinElmer, Massachusetts, USA).

[6] = target: GSPT1 HiBiT tag protein (Homo sapiens (Human), UniProt P15170+Q96SW2); experiment: hGSPT1 HiBiT assay; format: cell-based
Sequence of GSPT1 HiBiT tag protein (P15170 whole entry): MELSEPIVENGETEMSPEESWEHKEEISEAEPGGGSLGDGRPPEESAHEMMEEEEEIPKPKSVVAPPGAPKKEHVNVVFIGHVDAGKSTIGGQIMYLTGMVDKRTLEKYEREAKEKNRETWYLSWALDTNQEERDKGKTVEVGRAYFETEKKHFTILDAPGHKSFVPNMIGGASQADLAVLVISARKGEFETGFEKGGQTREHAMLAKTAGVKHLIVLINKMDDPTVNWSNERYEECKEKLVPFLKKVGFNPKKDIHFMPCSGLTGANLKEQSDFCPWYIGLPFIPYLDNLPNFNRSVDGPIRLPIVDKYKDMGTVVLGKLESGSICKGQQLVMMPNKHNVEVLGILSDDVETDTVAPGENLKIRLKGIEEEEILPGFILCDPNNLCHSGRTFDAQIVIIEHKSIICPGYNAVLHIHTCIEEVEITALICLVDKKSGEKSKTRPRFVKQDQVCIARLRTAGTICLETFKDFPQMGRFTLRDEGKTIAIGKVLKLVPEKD
Sequence of GSPT1 HiBiT tag protein (Q96SW2 whole entry): as the sequence (Q96SW2 whole entry) above
Sequence of GSPT1 HiBiT tag protein (Q16531 whole entry partner): as the sequence (Q16531 whole entry partner) above
Experimental: hGSPT1 HiBiT cell line. HEK293_hGSPT1_HiBiT tagged cells were generated using CRISPR-Cas12a technology. Briefly, ˜400,000 HEK293 cells were transiently co-transfecting with precomplexed ribonuclear proteins (RNPs) consisting of […] of crRNA (IDT), 62 pmol of Cas12a protein (IDT), 3 ug of ssODN donor (IDT; AltR™ modifications), 78 pmol of electroporation enhancer (IDT), and 200 ng of pMaxGFP (Lonza). The transfection was performed via nucleofection (Lonza, 4D-Nucleofector™ X-unit) using solution P3 and program CM-130 in a small (20 ul) cuvette according to the manufacturer's recommended protocol. Five days post-nucleofection, cells were single cell sorted for GFP+(transfected) cells by FACs in 96-well plates and clonally selected. Clones were screened and verified for the desired modification via targeted deep sequencing using gene specific primers with partial Illumina adapter overhangs as previously described.^58 In brief, clonal cell pellets were harvested, lysed and used to generate gene specific amplicons with partial Illumina adapters in PCR #1. Amplicons were indexed in PCR #2 and pooled with other targeted amplicons for other loci to create sequence diversity. Additionally, 10% PhiX Sequencing Control V3 (Illumina) was added to the pooled amplicon library prior to running the sample on an Miseq Sequencer System (Illumina) to generate paired 2×250 bp reads. […] Editing construct sequences and screening primers are listed below in Table 4.
hGSPT1 HiBiT assay. […] After 4 hrs incubation, the level of GSPT1 HiBiT tag protein was evaluated using Nano-Glo® HiBiT Lytic Detection System (Promega) according to the manufacturer's instruction.

[7] = cereblon binding, class symbols, read-out: CRBN FP IC50
[8] = fluorescence polarization, Cy5-O-Len probe, read-out: CRBN IC50
[9] = HEK293 hGSPT1 HiBiT cells, 4 hrs incubation; read-out: GSPT1 HiBit EC50

SMILES	IC50 [5, 7] [nM]	DC50 [6, 9] [µM]	also measured
O=C1CCC(N2Cc3cc(CNC(=O)C(F)(F)c4ccc(Cl)cc4)ccc3C2=O)C(=O)N1 (centres unmarked) [CC-90009, 2-(4-chlorophenyl)-N-((2-(2,6-dioxopiperidin-3-yl)-1-oxoisoindolin-5-yl)methyl)-2,2-difluoroacetamide, reference compound]			Sol. [1]: 77 µM; Dmax at 10 µM ([2]; 4 hours, at 10 μM): 55%; DC50 [2]: 10 nM; DC50 ([2]; listed as CC90009): 9.9 nM; EC50 ([3]; Homo sapiens): 62 nM; Papp [4]: 49 nm/s
Cc1ccc(S(=O)(=O)Nc2ccc3c(c2)C(=O)N(C2CCC(=O)NC2=O)C3=O)cc1Cl (centres unmarked) [Compound 7, 3-chloro-N-(2-(2,6-dioxopiperidin-3-yl)-1,3-dioxoisoindolin-5-yl)-4-methylbenzenesulfonamide]	< 1000	> 10	Papp [4]: 46 nm/s; IC50 [5, 8]: 13 nM
O=C1CCC(N2C(=O)c3ccc(NS(=O)(=O)c4ccccc4)cc3C2=O)C(=O)N1 (centres unmarked) [Compound 20, N-(2-(2,6-dioxopiperidin-3-yl)-1,3-dioxoisoindolin-5-yl)benzenesulfonamide]			Sol. [1]: 71 µM; MV4-11 EC50 [3]: inactive; Papp [4]: 36 nm/s; IC50 ([5]; CRBN FP IC50, cereblon binding, class symbols): < 1000 nM; IC50 [5, 8]: 72 nM; DC50 ([6]; read-out: GSPT1 HiBit EC50; HEK293 hGSPT1 HiBiT cells, 4 hrs incubation): > 10 µM
Cc1cc(S(=O)(=O)Nc2ccc3c(c2)C(=O)N(C2CCC(=O)NC2=O)C3=O)c(C)cc1Cl (centres unmarked) [Compound 77, 4-chloro-N-(2-(2,6-dioxopiperidin-3-yl)-1,3-dioxoisoindolin-5-yl)-2,5-dimethylbenzenesulfonamide]	< 1000	< 1	
COc1ccc(Br)cc1S(=O)(=O)Nc1ccc2c(c1)C(=O)N(C1CCC(=O)NC1=O)C2=O (centres unmarked) [Compound 78, 5-bromo-N-(2-(2,6-dioxopiperidin-3-yl)-1,3-dioxoisoindolin-5-yl)-2-methoxybenzenesulfonamide]	1000 to 10000	> 10	
O=C1CCC(N2C(=O)c3ccc(NS(=O)(=O)c4cccc(Cl)c4)cc3C2=O)C(=O)N1 (centres unmarked) [Compound 95, 3-chloro-N-(2-(2,6-dioxopiperidin-3-yl)-1,3-dioxoisoindolin-5-yl)benzenesulfonamide]	< 1000	> 10	
O=C1CCC(N2C(=O)c3ccc(NS(=O)(=O)c4ccc(OC(F)(F)F)cc4)cc3C2=O)C(=O)N1 (centres unmarked) [Compound 96]	< 1000	> 10	
O=C1CCC(N2C(=O)c3ccc(NS(=O)(=O)c4ccccc4C(F)(F)F)cc3C2=O)C(=O)N1 (centres unmarked) [Compound 99, N-(2-(2,6-dioxopiperidin-3-yl)-1,3-dioxoisoindolin-5-yl)-2-(trifluoromethyl)benzenesulfonamide]	< 1000	< 1	
COc1ccccc1S(=O)(=O)Nc1ccc2c(c1)C(=O)N(C1CCC(=O)NC1=O)C2=O (centres unmarked) [Compound 100, N-(2-(2,6-dioxopiperidin-3-yl)-1,3-dioxoisoindolin-5-yl)-2-methoxybenzenesulfonamide]	< 1000	> 10	

Continued, in another order:

IC50 [5, 7] [nM]	DC50 [6, 9] [µM]	SMILES	also measured
< 1000	> 10	O=C1CCC(N2C(=O)c3ccc(NS(=O)(=O)c4ccccc4-c4ccccc4)cc3C2=O)C(=O)N1 (centres unmarked) [Compound 81, N-(2-(2,6-dioxopiperidin-3-yl)-1,3-dioxoisoindolin-5-yl)-[1,1′-biphenyl]-2-sulfonamide]	
< 1000	> 10	O=C1CCC(N2C(=O)c3ccc(NS(=O)(=O)c4ccccc4F)cc3C2=O)C(=O)N1 (centres unmarked) [Compound 82, N-(2-(2,6-dioxopiperidin-3-yl)-1,3-dioxoisoindolin-5-yl)-2-fluorobenzenesulfonamide]	
< 1000	> 10	O=C1CCC(N2C(=O)c3ccc(NS(=O)(=O)c4ccsc4)cc3C2=O)C(=O)N1 (centres unmarked) [Compound 83, N-(2-(2,6-dioxopiperidin-3-yl)-1,3-dioxoisoindolin-5-yl)thiophene-3-sulfonamide]	
< 1000	> 10	O=C1CCC(N2C(=O)c3ccc(NS(=O)(=O)c4cc5ccccc5s4)cc3C2=O)C(=O)N1 (centres unmarked) [Compound 87, N-(2-(2,6-dioxopiperidin-3-yl)-1,3-dioxoisoindolin-5-yl)benzo[b]thiophene-2-sulfonamide]	
< 1000	> 10	O=C1CCC(N2C(=O)c3ccc(NS(=O)(=O)Cc4ccc(F)cc4)cc3C2=O)C(=O)N1 (centres unmarked) [Compound 89, N-(2-(2,6-dioxopiperidin-3-yl)-1,3-dioxoisoindolin-5-yl)-1-(4-fluorophenyl)methanesulfonamide]	
1000 to 10000	> 10	Cc1ccccc1CS(=O)(=O)Nc1ccc2c(c1)C(=O)N(C1CCC(=O)NC1=O)C2=O (centres unmarked) [Compound 90, N-(2-(2,6-dioxopiperidin-3-yl)-1,3-dioxoisoindolin-5-yl)-1-(o-tolyt)methanesulfonamide]	
1000 to 10000	> 10	O=C1CCC(N2C(=O)c3ccc(NS(=O)(=O)c4ccc(O)cc4)cc3C2=O)C(=O)N1 (centres unmarked) [Compound 92, N-(2-(2,6-dioxopiperidin-3-yl)-1,3-dioxoisoindolin-5-yl)-4-hydroxybenzenesulfonamide]	
< 1000	< 1	O=C1CCC(N2C(=O)c3ccc(NS(=O)(=O)c4ccccc4Br)cc3C2=O)C(=O)N1 (centres unmarked) [Compound 98, 2-bromo-N-(2-(2,6-dioxopiperidin-3-yl)-1,3-dioxoisoindolin-5-yl)benzenesulfonamide]	
